{
  "source": "patent US7884067B2",
  "about": "“Peptides derived from cadherin and methods of use thereof” (Mount Sinai School of Medicine of New York University, priority 2001, dated 2011)",
  "key": {"c-fos": {"tested_on": "c-fos", "test": "c-fos mRNA (RT-PCR) and protein (Western blot) in N2a cells", "assay_type": "cell-based, mouse", "procedure": "Reverse Transcriptase (RT)-PCR Analysis. Total RNA was extracted from cells using a RNeasy Mini Kit (Qiagen) according to instructions by the manufacturer. Analysis of gene expression was performed using semiquantitative RT-PCR. The following primers were used: 5′-[…]-3′ (SEQ ID NO: 13) and 5′-[…]-3′ (SEQ ID NO: 14) for c-fos; 5′-[…]-3′ (SEQ ID NO: 15) and 5′-[…]-3′ (SEQ ID NO: 16) for gapdh.\nN2a cells co-transfected with plasmids pCRE-luc, pFC-PKA, and pSV-β-galactosidase were incubated for 16 hours with DMSO or with L-685,458 ([…]) and CRE-dependent transactivation was measured as described above. Data in FIG. 10A are the mean+/−s.e. of 3 experiments normalized to β-galactosidase activity and protein concentration. *, P<0.05 (Student's t test). Total RNA isolated from N2a cells treated either with DMSO or with L-685,458, was analyzed by semiquantitative RT-PCR using specific primers for c-fos and gapdh. The graph in FIG. 10B represents the relative abundance of c-fos-specific PCR products following quantitation of the mRNA signals shown in the upper panel. Extract from N2a cells treated either with DMSO or with L-685,458, were probed on WBs with anti-c-fos or anti-β-tubulin antibodies. Extract from PS1+/+ or PS1−/− mouse fibroblasts were probed on WBs with either anti-c-fos or anti-β-tubulin antibodies. Extract from PS1+/− or PS1−/− mouse embryonic brains were probed on WBs with anti-c-fos (FIG. 10E, upper panel), anti-b-tubulin (FIG. 10E, middle panel), or anti-PS1/CTF (FIG. 10E, lower panel) antibodies."}, "N-cadherin": {"tested_on": "N-cadherin", "test": "N-cadherin processing in fibroblast cultures (Western blot, C32)", "assay_type": "cell-based, mouse", "settings": "WT fibroblasts, L-685,458 (0.5 μM), 16 hours", "procedure": "Extracts from PS1+/+ or PS1−/− mouse embryos were probed on WBs with either anti-cytoplasmic N-cadherin antibody (FIG. 7A, upper panel) or anti-PS I/CTF antibody 33B10 (FIG. 7A, lower panel). Extracts from PS1+/+ or PS1−/− fibroblast cultures were incubated for 16 hours in the absence or presence of DMSO, L-685,458 (0.5 μM) and probed on WBs with either C32 or 33B10 antibodies."}, "[1]": {"tested_on": "CRE-dependent transactivation", "test": "CRE-dependent luciferase activity in HEK293 cultures stably transfected with WT-PS1", "assay_type": "cell-based, human", "settings": "presence of L-685,458, FIG. 9B", "procedure": "Transactivation assays. CRE-dependent transactivation was measured in the absence or presence of overexpression of PKA (pFC-PKA, Stratagene) by cotransfection with CRE-luciferase reporter plasmid (pCRE-Luc, Stratagene) and pSV-β-galactosidase vector (Promega) to evaluate transfection efficiency. CHOP-mediated transactivation was measured by cotransfection with the Gal4-fusion trans-activator plasmids (pFA-CHOP and pFR-Luc, Stratagene). 30 hours after transfection, luciferase and β-galactosidase activities were determined following manufacturer's instructions using a TD-20/20 luminometer (Turner Designs) and a DU-64 spectrophotometer (Beckman). Values were normalized to β-galactosidase activity and protein concentration.\nHEK293 cultures stably transfected either with vector or WT-PS1 were co-transfected with pFC-PKA, pCRE-Luc, and pSV-β-galactosidase in the presence or absence of L-685,458 and then processed for CRE-dependent luciferase activity. Data in FIGS. 9A and B are the mean+/−s.e. of 4 experiments normalized to β-galactosidase activity and protein concentration. *, P<0.05; ***, P<0.001 (Student's t test)."}, "CBP": {"target": "T1, CBP (Mus musculus, UniProt P45481)", "T1 construct": "a process that relies on endogenous CBP and CREB; endogenous in cells; host or cells: L cells transfected with vector or pN-Cad/CTF2", "T1 sequence (P45481 whole entry)": "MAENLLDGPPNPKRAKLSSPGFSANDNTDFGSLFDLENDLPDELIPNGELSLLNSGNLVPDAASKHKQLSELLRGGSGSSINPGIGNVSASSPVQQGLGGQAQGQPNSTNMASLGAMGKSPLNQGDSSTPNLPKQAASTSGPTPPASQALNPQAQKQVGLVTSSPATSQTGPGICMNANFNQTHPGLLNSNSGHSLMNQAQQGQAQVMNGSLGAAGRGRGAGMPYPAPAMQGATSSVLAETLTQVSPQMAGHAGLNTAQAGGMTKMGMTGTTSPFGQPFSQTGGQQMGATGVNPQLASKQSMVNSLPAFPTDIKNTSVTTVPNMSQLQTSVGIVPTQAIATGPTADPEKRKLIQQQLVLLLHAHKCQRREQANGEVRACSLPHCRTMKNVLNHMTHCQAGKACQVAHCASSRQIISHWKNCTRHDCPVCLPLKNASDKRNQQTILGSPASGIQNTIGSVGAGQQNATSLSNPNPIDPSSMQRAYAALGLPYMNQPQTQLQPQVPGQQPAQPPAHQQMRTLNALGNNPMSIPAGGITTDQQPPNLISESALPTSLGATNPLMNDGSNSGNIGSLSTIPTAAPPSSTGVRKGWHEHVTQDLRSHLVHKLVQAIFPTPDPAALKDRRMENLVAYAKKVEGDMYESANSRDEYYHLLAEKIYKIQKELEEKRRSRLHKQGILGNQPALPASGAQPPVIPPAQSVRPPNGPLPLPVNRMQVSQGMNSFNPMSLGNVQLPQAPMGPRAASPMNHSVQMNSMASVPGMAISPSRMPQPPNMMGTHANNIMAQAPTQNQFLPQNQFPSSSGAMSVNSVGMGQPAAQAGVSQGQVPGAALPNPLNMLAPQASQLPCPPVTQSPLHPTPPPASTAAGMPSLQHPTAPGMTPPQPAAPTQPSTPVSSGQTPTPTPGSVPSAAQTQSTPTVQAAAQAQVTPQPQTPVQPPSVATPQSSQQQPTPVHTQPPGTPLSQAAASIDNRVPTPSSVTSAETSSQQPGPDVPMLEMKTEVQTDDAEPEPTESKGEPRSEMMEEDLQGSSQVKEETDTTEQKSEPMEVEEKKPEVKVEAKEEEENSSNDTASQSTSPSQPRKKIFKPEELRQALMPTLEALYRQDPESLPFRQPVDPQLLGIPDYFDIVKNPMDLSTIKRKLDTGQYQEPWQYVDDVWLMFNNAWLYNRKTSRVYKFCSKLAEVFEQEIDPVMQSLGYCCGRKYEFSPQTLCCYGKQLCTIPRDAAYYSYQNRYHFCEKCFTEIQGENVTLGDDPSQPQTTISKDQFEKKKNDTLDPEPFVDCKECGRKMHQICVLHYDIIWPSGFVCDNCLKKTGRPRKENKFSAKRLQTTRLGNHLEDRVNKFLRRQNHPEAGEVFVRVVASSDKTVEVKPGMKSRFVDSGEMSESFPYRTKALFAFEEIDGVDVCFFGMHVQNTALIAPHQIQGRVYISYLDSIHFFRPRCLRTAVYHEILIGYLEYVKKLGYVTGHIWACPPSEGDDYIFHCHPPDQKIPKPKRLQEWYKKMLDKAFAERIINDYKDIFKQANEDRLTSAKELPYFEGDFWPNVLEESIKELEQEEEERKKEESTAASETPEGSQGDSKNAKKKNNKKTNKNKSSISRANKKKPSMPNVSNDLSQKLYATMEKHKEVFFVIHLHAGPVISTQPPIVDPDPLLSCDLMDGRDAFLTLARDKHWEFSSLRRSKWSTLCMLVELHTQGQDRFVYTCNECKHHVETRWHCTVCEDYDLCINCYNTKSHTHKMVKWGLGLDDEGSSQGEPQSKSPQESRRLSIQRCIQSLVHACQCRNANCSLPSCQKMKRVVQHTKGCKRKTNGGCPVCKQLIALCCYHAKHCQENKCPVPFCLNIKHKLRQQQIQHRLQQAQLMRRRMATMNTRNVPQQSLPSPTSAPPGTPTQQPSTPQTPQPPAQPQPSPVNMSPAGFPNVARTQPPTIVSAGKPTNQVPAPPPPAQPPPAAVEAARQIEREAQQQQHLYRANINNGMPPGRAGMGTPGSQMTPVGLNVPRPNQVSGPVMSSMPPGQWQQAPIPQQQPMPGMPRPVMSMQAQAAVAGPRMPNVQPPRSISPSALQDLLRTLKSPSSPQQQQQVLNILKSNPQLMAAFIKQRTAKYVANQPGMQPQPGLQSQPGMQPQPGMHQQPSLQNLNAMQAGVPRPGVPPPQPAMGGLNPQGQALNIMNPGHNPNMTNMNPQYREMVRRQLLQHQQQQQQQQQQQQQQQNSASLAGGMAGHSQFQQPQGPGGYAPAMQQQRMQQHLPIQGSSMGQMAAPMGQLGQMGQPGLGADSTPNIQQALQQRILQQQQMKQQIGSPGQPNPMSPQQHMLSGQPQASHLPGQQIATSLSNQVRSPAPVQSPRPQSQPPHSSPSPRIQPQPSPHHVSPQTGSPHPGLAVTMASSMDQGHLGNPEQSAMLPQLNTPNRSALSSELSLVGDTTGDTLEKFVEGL", "test": "Co-immunoprecipitation in pN-Cad/CTF2-transfected L cells", "assay_type": "binding", "settings": "FIG. 11B", "procedure": "Immunoprecipitations (IPs), immunoblotting and immunofluorescence. IPs were performed as described by Marambaud et al. (2002) EMBO J. 21: 1948-1956 in 4° C. HEPES buffer (25 mM HEPES, pH 7.4, 150 mM NaCl, 1× Complete protease inhibitor cocktail, Roche) containing 0.5% Nonidet P40 (NP40). For western blot (WB) analysis, cells were solubilized in 4° C. RIPA buffer (50 mM Tris-HCl, pH 8, 150 mM NaCl, 0.1% SDS, 1% NP-40, 0.5% sodium deoxycholate, 1× Complete protease inhibitor cocktail) as described by Marambaud et al. (2002). Immunofluorescence was performed as described by Georgakopoulos et al. (1999) with the following modifications: to visualize nuclei, cells were treated for 5 minutes with 4′,6-diamidino-2-phenylndole (DAPI, 1:5000; Sigma). Fluorescence microscopy and digital image acquisition were carried out using an Axioskop2 microscope (Zeizz).\nTo determine how N-Cad/CTF2 affects CREB-mediated transcription, the following experiments were performed. L cells transfected either with vector (vector) or pN-Cad/CTF2 (N-Cad/CTF2) plasmids were fractionated into nuclear and cytosolic fractions, and probed on WBs with anti-CBP (FIG. 11A, panel a), anti-N-cadherin (FIG. 11A, panel b), anti-β-tubulin (FIG. 11A, panel c) or anti-phosphorylated CREB (P-CREB; FIG. 11A, panel d) antibodies. […] L cells transiently transfected with pN-Cad/CTF2 were analyzed by immunofluorescence staining. […]"}},
  "data": [
    {"molecule": "CC(C)C[C@H](NC(=O)[C@H](Cc1ccccc1)C[C@@H](O)[C@H](Cc1ccccc1)NC(=O)OC(C)(C)C)C(=O)N[C@@H](Cc1ccccc1)C(N)=O", "note": "[L-685,458]", "values": [
      {"measurement": "gapdh mRNA and β-tubulin", "setting": "c-fos; L-685,458, FIGS. 10B and 10C", "result": "remained unchanged"},
      {"measurement": "c-fos mRNA", "setting": "c-fos; L-685,458 vs untreated controls, FIG. 10B", "result": "stimulated"},
      {"measurement": "c-fos protein", "setting": "c-fos; L-685,458 vs untreated controls, FIG. 10C", "result": "stimulated"},
      {"measurement": "40 kDa peptide N-Cad/CTF1", "setting": "N-cadherin", "result": "accumulates"},
      {"measurement": "decrease of CRE-dependent transactivation caused by PS1 overexpression", "setting": "[1]", "result": "reversed"}
    ]},
    {"molecule": "N-Cad/CTF2: chicken cytoplasmic domain of N-cadherin (N-Cad/CTF2) inserted into vector pECE, expressed in L cells (protein) KRRDKERQAKQLLIDPEDDVRDNILKYDEEGGGEEDQDYDLSQLQQPDTVEPDAIKPVGIRRLDERPIHAEPQYPVRSAAPHPGDIGDFINEGLKAADNDPTAPPYDSLLVFDYEGSGSTAGSLSSLNSSSSGGEQDYDYLNDWGPRFKKLADMYGGGDD", "values": [
      {"measurement": "co-immunoprecipitation of N-Cad/CTF2 with CBP", "setting": "CBP", "result": "co-immunoprecipitates with CBP"}
    ]}
  ]
}
